Assay results: patent US11739098B2 (BRISTOL-MYERS SQUIBB COMPANY, priority 2017, dated 2023)

Tests used:
Assay type in all cases: cell-based
human TLR9 = molecular target: T1, human TLR9 (Homo sapiens, UniProt Q9NR96); experiment: TLR9 inhibition reporter assay (HEK-Blue cells, SEAP reporter, ODN2006 stimulation); settings: HEK-Blue cells overexpressing human TLR9, SEAP reporter, ODN2006 5 nM
T1 construct: host or cells: HEK-Blue cells (HEK293-derived reporter line)
T1 sequence (Q9NR96 26-1032): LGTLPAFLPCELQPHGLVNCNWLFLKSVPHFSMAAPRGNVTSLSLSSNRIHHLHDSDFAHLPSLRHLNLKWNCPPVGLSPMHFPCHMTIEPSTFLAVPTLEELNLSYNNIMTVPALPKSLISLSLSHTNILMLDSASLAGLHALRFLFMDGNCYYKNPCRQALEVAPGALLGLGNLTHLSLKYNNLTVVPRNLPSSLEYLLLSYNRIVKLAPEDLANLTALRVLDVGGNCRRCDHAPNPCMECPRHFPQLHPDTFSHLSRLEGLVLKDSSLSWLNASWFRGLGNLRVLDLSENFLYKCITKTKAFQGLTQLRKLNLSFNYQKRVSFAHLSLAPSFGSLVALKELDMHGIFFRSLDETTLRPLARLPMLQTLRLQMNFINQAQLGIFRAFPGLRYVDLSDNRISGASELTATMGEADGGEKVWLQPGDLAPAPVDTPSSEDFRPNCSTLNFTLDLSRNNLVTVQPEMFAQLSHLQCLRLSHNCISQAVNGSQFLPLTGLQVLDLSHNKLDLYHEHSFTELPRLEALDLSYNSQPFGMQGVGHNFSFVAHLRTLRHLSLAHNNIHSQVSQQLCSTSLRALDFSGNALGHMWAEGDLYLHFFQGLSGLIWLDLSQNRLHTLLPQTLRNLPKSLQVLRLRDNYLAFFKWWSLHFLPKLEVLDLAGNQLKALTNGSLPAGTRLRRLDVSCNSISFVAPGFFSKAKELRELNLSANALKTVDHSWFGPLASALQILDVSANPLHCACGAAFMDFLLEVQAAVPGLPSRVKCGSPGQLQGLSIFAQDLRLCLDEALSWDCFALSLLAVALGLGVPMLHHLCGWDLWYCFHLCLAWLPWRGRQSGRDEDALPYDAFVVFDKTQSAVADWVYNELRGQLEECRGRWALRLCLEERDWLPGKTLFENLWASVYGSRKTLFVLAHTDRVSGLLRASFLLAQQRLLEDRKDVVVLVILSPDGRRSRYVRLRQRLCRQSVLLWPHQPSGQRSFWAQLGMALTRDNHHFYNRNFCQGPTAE
Summary of the method: (§1)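 Cells seeded per well (15000 TLR7, 20,000 TLR8, 25,000 TLR9); compound added over 0.05 nM–50 μM for 30 min at room temperature; agonist added (TLR7 gardiquimod 7.5 μM, TLR8 R848 15.9 μM, TLR9 ODN2006 5 nM); 22 h at 37 °C; SEAP measured; percent inhibition calculated.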

human TLR7 = molecular target: T2, human TLR7 (Homo sapiens, UniProt Q9NYK1); experiment: TLR7 inhibition reporter assay (HEK-Blue cells, SEAP reporter, gardiquimod stimulation); settings: HEK-Blue cells overexpressing human TLR7, SEAP reporter, gardiquimod 7.5 μM
T2 construct: host or cells: HEK-Blue cells (HEK293-derived reporter line)
T2 sequence (Q9NYK1 27-1049): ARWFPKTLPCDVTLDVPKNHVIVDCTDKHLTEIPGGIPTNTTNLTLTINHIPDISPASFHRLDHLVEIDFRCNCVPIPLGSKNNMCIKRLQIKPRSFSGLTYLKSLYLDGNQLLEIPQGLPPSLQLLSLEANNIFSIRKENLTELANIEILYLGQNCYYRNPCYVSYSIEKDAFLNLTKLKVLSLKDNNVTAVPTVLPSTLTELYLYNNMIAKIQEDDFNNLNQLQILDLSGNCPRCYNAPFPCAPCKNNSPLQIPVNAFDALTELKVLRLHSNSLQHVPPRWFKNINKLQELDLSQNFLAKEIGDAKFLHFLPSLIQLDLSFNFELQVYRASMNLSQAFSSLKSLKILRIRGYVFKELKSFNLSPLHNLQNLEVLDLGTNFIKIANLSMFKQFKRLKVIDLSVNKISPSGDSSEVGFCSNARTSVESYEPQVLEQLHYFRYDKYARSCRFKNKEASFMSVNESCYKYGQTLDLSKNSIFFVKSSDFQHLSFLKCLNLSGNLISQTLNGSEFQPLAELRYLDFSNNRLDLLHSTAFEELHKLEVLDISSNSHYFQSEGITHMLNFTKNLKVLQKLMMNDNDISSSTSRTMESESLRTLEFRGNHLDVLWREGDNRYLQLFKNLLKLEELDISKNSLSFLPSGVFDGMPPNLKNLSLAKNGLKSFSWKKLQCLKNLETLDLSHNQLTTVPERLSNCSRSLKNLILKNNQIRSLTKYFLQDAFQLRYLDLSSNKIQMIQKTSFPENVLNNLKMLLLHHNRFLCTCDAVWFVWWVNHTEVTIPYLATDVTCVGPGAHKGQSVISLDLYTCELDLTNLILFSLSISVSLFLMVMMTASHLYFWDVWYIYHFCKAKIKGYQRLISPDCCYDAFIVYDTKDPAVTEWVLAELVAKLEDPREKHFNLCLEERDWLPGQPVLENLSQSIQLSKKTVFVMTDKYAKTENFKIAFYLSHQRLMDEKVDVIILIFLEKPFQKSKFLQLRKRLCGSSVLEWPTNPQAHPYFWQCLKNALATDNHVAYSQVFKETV
Summary of the method: as §1

human TLR8 = molecular target: T3, human TLR8 (Homo sapiens, UniProt Q9NR97); experiment: TLR8 inhibition reporter assay (HEK-Blue cells, SEAP reporter, R848 stimulation); settings: HEK-Blue cells overexpressing human TLR8, SEAP reporter, R848 15.9 μM
T3 construct: host or cells: HEK-Blue cells (HEK293-derived reporter line)
T3 sequence (Q9NR97 27-1041): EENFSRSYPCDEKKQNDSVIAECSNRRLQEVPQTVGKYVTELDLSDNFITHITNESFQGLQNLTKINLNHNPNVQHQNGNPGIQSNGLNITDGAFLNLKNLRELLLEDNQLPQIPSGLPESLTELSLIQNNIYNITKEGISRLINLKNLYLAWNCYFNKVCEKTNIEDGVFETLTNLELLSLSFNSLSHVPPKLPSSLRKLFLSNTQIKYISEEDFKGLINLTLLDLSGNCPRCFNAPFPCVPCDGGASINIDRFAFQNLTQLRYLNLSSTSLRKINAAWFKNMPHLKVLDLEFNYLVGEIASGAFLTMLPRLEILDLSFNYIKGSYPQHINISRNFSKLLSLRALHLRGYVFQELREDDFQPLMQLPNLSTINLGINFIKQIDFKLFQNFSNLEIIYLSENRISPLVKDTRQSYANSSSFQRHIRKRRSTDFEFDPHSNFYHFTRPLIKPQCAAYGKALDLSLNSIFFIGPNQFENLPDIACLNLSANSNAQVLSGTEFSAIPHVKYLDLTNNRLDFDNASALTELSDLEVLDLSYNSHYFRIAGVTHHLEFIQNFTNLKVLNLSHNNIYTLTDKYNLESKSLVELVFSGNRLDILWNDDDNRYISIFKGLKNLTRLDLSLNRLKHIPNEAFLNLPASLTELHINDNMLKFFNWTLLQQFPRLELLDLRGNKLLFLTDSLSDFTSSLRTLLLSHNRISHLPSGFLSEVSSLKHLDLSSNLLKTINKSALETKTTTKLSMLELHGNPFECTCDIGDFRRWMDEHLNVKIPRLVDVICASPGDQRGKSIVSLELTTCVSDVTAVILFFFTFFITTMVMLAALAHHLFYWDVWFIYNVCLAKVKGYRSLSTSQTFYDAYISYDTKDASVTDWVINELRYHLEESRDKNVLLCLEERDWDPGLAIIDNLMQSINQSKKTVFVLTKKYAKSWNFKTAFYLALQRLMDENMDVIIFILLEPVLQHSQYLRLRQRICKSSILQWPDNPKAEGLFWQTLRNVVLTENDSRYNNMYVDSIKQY
Summary of the method: as §1

Row | Compound | IC50 (human TLR9) [µM] | IC50 (human TLR7) [µM] | IC50 (human TLR8) [µM]
1 | Cc1c(-c2ccnc3[nH]cc(O)c23)[nH]c2ccc(C3CCNCC3)cc12 [Example 212, 4-(3-methyl-5-(piperidin-4-yl)-1H-indol-2-yl)-1H-pyrrolo[2,3-b]pyridin-3-ol] | 1 to 50 | 1 to 50 | 1 to 50
2 | CC(C)c1c(-c2ccc3cnnn3c2)[nH]c2ccc(C3CCNCC3)cc12 [Example 79, 6-(3-isopropyl-5-(piperidin-4-yl)-1H-indol-2-yl)-[1,2,3]triazolo[1,5-a]pyridine] | 0.1 to 1 | < 0.1 | 0.1 to 1
3 | CNC(=O)c1cn2cc(-c3[nH]c4ccc(C5CCNCC5)cc4c3C(C)C)cc(C)c2n1 [Example 264, 6-(3-isopropyl-5-(piperidin-4-yl)-1H-indol-2-yl)-N,8-dimethylimidazo[1,2-a]pyridine-2-carboxamide] | 0.1 to 1 | < 0.1 | < 0.1
4 | CCc1c(-c2ccnc3[nH]ncc23)[nH]c2ccc(C3CCN(Cc4cc(C)n[nH]4)CC3)cc12 [Example 900, 4-(3-ethyl-5-(1-((3-methyl-1H-pyrazol-5-yl)methyl)piperidin-4-yl)-1H-indol-2-yl)-1H-pyrazolo[3,4-b]pyridine] | 1 to 50 | 0.1 to 1 | < 0.1
5 | Cc1cc(-c2[nH]c3ccc(C4CCN(C(=O)CN(C)C)CC4)cc3c2C(C)C)cc2nccn12 [Example 500, 2-(dimethylamino)-1-(4-(3-isopropyl-2-(5-methylimidazo[1,2-a]pyridin-7-yl)-1H-indol-5-yl)piperidin-1-yl)ethan-1-one] | 0.1 to 1 | 0.1 to 1 | 0.1 to 1
6 | CC(C)c1c(-c2ccc3[nH]nc(N)c3c2)[nH]c2ccc(C3CCNCC3)cc12 [Example 93, 5-(3-isopropyl-5-(piperidin-4-yl)-1H-indol-2-yl)-1H-indazol-3-amine] | 0.1 to 1 | < 0.1 | < 0.1
7 | Cc1cc(-c2[nH]c3ccc(C4CCNCC4)cc3c2C(C)C)cc2cn(C)nc12 [Example 138, 5-(3-isopropyl-5-(piperidin-4-yl)-1H-indol-2-yl)-2,7-dimethyl-2H-indazole] | 1 to 50 | < 0.1 | < 0.1
8 | CNCCN1CCC(c2ccc3[nH]c(-c4ccc5ncccc5c4)c(C)c3c2)CC1 [Example 666, N-methyl-2-(4-(3-methyl-2-(quinolin-6-yl)-1H-indol-5-yl)piperidin-1-yl)ethan-1-amine] | 0.1 to 1 | 1 to 50 | > 3.13
9 | CCOc1cc(-c2[nH]c3ccc(C4CCN(CC(=O)N(C)C)CC4)cc3c2C(C)C)cc2ncnn12 [Example 350, 2-(4-(2-(5-ethoxy-[1,2,4]triazolo[1,5-a]pyridin-7-yl)-3-isopropyl-1H-indol-5-yl)piperidin-1-yl)-N,N-dimethylacetamide] | 1 to 50 | < 0.1 | < 0.1
10 | CC(C)c1c(-c2ccnc3[nH]ncc23)[nH]c2ccc(C3CCN(Cc4ccc(OCCN(C)c5ccccn5)cc4)CC3)cc12 [Example 894, N-(2-(4-((4-(3-isopropyl-2-(1H-pyrazolo[3,4-b]pyridin-4-yl)-1H-indol-5-yl)piperidin-1-yl)methyl)phenoxy)ethyl)-N-methylpyridin-2-amine] | 0.1 to 1 | 0.1 to 1 | < 0.1
11 | CC(C)c1c(-c2cnc3ncnn3c2)[nH]c2ccc(C3CCN(CC(=O)N(C)C)CC3)cc12 [Example 422, 2-(4-(2-([1,2,4]triazolo[1,5-a]pyrimidin-6-yl)-3-isopropyl-1H-indol-5-yl)piperidin-1-yl)-N,N-dimethylacetamide] | 1 to 50 | < 0.1 | 0.1 to 1
12 | CNCC(=O)N1CCC(c2ccc3[nH]c(-c4cc(F)c5nccn5c4)c(CC(F)F)c3c2)CC1 [Example 545, 1-(4-(3-(2,2-difluoroethyl)-2-(8-fluoroimidazo[1,2-a]pyridin-6-yl)-1H-indol-5-yl)piperidin-1-yl)-2-(methylamino)ethan-1-one] | 0.1 to 1 | < 0.1 | 1 to 50
13 | CNCC(=O)N1CCC(c2ccc3[nH]c(-c4cnc5ncnn5c4)c(C(C)C)c3c2)CC1 [Example 555, 1-(4-(2-([1,2,4]triazolo [1,5-a]pyrimidin-6-yl)-3-isopropyl-1H-indol-5-yl)piperidin-1-yl)-2-(methylamino)ethan-1-one] | 1 to 50 | < 0.1 | 0.1 to 1
14 | CC(C)c1c(-c2ccnc3[nH]ncc23)[nH]c2cc(F)c(C3CCN(CC4CCN(C(C)C)CC4)CC3)cc12 [Example 966, 4-(6-fluoro-3-isopropyl-5-(1-((1-isopropylpiperidin-4-yl)methyl)piperidin-4-yl)-1H-indol-2-yl)-1H-pyrazolo[3,4-b]pyridine] | < 0.1 | < 0.1 | < 0.1
